# Experimental data published in patent US20180305424A1, “Methods of Inducibly Targeting Chromatin Effectors and Compositions for Use in the Same” (The Board of Trustees of the Leland Stanford Junior …, priority 2015, published 2018).
# “And” between values parts separate entries of the source, which are not always exact repeats. Identical values can stand only once.
# Experiments:
# Format in all cases: cell-based, mouse
# [1] = tested on: BAF complex recruitment to the modified Oct4 (Pou5f1) locus in CiA MEF cells; assay: Recruitment assay (ON): rapamycin-induced BAF complex recruitment to the CiA Oct4 locus, ChIP-qPCR; details: 24 hours of rapamycin treatment (3 nM); Frb-V5-tagged BAF subunit fusions; CiA MEFs
# Source text: CiA mouse embryonic fibroblasts (MEFs) containing a modified Oct4 promoter (with 12×ZFHD1 and 6×GAL4 sites upstream of the promoter) were generated, cultured and maintained as previously described (Hathaway et al., “Dynamics and memory of heterochromatin in living cells,” Cell (2012) 149:1447-1460). Briefly, lentiviral delivery constructs bearing an EF1-alpha promoter and either puromycin or blasticidin resistance were generated to contain the constructs described here (FIG. 1a). To generate recruitable forms of BAF complexes, individual subunits (SS18, BRG, BAF47, BAF57) were N-terminally fused to Frb-V5. […]
# Briefly, for rapid time course assays, adherent CiA MEF cells were washed once in PBS, scraped off plates into fix buffer (50 mM HEPES, 1 mM EDTA, 0.5 mM EGTA, and 100 mM NaCl), resuspended, and immediately formaldehyde fixed. […] Chromatin input was reverse crosslinked and evaluated for shearing efficiency and 100-150 μg of chromatin stock was used per immunoprecipitation reaction. […]
# (§1) CiA knock-in locus-specific primers were generated with plus (+) and minus (−) direction distances calculated from the middle of the ZFHD1 recruitment domain as well as […] distances calculated from the Oct4 transcription start site (TSS). Briefly, enrichment (bound over input) averages and standard deviations were calculated over n=5 repeat experiments for each primer set. […]
# [2] = tested on: BAF complex tethering to the Oct4 locus in CiA MEF cells; assay: OFF/washout experiments: FK1012 competition of rapamycin-tethered BAF complexes, ChIP-qPCR
# Description: Briefly, adherent CiA MEF cells were treated with 3 nM (final) rapamycin (sirolimus; Sellekchem #S1039) (ON experiments) or 3 nM rapamycin followed by 30 nM FK1012 (OFF/washout experiments) for prescribed times (2.5 minutes-24 hours). For acute time points, cells were harvested rapidly by washing media out once with PBS, scraping cells off plates with a cell scraper, resuspending in CiA fix buffer, and formaldehyde fixing for subsequent ChIP analyses.
# Briefly, for rapid time course assays, adherent CiA MEF cells were washed once in PBS, scraped off plates into fix buffer (50 mM HEPES, 1 mM EDTA, 0.5 mM EGTA, and 100 mM NaCl), resuspended, and immediately formaldehyde fixed. After cross-linking, cells (7-10×10̂6) were washed and sonicated for 13.5 minutes using a Covaris E220 Sonicator (Covaris, Inc., Woburn, Mass.). Chromatin input was reverse crosslinked and evaluated for shearing efficiency and 100-150 μg of chromatin stock was used per immunoprecipitation reaction. […]
# as §1
# [3] = tested on: DNA accessibility at the Oct4 locus in CiA Oct4 MEF cells; assay: Transposase (Tn5) chromatin accessibility assay after FK1012 addition; details: post-addition of FK1012 (removal of the BAF complex)
# Description: Following various recruitment conditions, 5×10̂4 CiA Oct4 MEF cells were harvested, washed once in PBS, once in RSB buffer (10 mM Tris-HCl, pH 7.4, 10 mM NaCl, 3 mM MgCl2), and centrifuged at 500×g for 5 minutes at 4 degrees C. Cells were then lysed in lysis buffer (500 ul RSB buffer+5 ul 10% NP-40) for 5 minutes on ice, spun at 500×g for 5 minutes, resuspended in Tagment DNA/Enzyme Buffer Mix (Illumina Nextera Sample Preparation Kit, Cat. # FC-121-1030), and incubated for 30 minutes at 37° C. Following Tn5 transposase enzyme reaction, DNA was purified using Quiagen MinElute PCR Purification Kit (Cat #28004). Transposed DNA fragments were amplified via qPCR to the appropriate number of cycles and library was purified using a Quiagen PCR Cleanup Kit eluted in 20 ul of elution buffer (10 mM Tris Buffer, pH 8.0). CiA locus-specific qPCR was performed using primers in Supplemental Table 2.
molecule,measurement,setting,value
CO[C@H]1C[C@@H]2CC[C@@H](C)[C@@](O)(O2)C(=O)C(=O)N2CCCC[C@H]2C(=O)O[C@H]([C@H](C)C[C@@H]2CC[C@@H](O)[C@H](OC)C2)CC(=O)[C@H](C)/C=C(\C)[C@@H](O)[C@@H](OC)C(=O)[C@H](C)C[C@H](C)/C=C/C=C/C=C/1C [rapamycin],BAF complex recruitment (fold enrichment over baseline by ChIP-qPCR),[1],20-40 fold and 40-60 fold
FK1012,"Decrease in BAF complex tethering to the Oct4 locus, FK1012 addition versus rapamycin washout (media change)",[2]; 3 nM rapamycin followed by 30 nM FK1012,"more rapid, robust decreases"
same,Time at which PRC2 (Ezh2) and PRC1 (Ring1B) began to reappear,"[2]; post-addition of FK1012, paralleled by reappearance of H3K27Me3 and H2AUb1",~2 h
same,Time at which inaccessible chromatin began to reform,[3],2.5 to 5 h
